Measured values taken from BigSolDB 2.1.

O=C(O)[C@@H](O)CCc1ccccc1
solubility (mole fraction)
Conditions | in ethyl acetate | in toluene | in water
278.2 K | 0.107 | – | –
283.2 K | 0.117 | – | 0.00071
288.2 K | 0.128 | 0.0013 | 0.00094
293.2 K | 0.14 | 0.00169 | 0.00107
298.2 K | 0.15 | 0.00235 | 0.00137
303.2 K | 0.16 | 0.00298 | 0.00172
308.2 K | 0.174 | 0.00407 | 0.00229
313.2 K | 0.182 | 0.00555 | 0.00311
318.2 K | – | 0.00729 | 0.00406
323.2 K | – | 0.00996 | 0.00701
328.2 K | – | 0.0127 | 0.0142
333.2 K | – | 0.0173 | 0.044
338.2 K | – | 0.0238 | –
343.2 K | – | 0.0341 | –
